Results reported in BigSolDB 2.1.

Cc1ccc(C(=O)O)cc1
solubility (mole fraction)
Conditions | in acetic acid | in methanol
283.15 K | 0.043 | 0.02
288.15 K | 0.048 | 0.021
293.15 K | 0.053 | 0.023
298.15 K | 0.059 | 0.027
303.15 K | 0.064 | 0.029
308.15 K | 0.07 | 0.033
313.15 K | 0.077 | 0.038
318.15 K | 0.085 | 0.041
323.15 K | 0.095 | 0.047
328.15 K | 0.103 | 0.054
333.15 K | 0.113 | 0.061
